How the values were obtained:
[1] = system: p62 in prostate, lung, breast and endometrial primary fibroblasts; test: p62 immunoblot in primary fibroblasts of different tissue origins; format: cell-based; conditions: Olaparib 20 μM, 4 days
Description: Cells for protein analysis were lysed in RIPA buffer (20 mM Tris-HCl, […], 2 mM EDTA, 1% Triton-X, 10% glycerol, 0.1% SDS, and 0.5% sodium deoxycholate) with phosphatase and protease inhibitors. For immunoprecipitations, cells were lysed in IP lysis buffer (100 mM NaCl, 25 mM Tris, 1% Triton-X, 10% glycerol, with phosphatase and protease inhibitors) and immunoprecipitated with 25 μl of 50% slurry of protein […] beads (Bioworld). Immunoprecipitates were washed three times with lysis buffer, once with high salt (500 mM NaCl), and once more with lysis buffer. Protein concentration in lysates was determined by using Protein Assay Kit (Bio-Rad). Cell extracts and immunoprecipitated proteins were denatured, subjected to SDS-PAGE, transferred to PVDF membranes (GE Healthcare). After blocking with 5% nonfat dry milk in Tris-buffered saline and 0.1% Tween (TBS-T), the membranes were incubated with the specific antibodies (as listed in Key Resources Table) overnight at 4° C. After 2 hours incubation with the appropriate horseradish peroxidase-conjugated antibodies, the immune complexes were detected by chemiluminescence (Thermo Scientific) or Near-infrared fluorescence (LI-COR).

TRAMP+ prostate tumors = test: TRAMP+ prostate tumor model (IHC, scRNAseq); format: in vivo, mouse
Description: For mouse xenografts using PC3 PCa cells and sgC or sgAP-1 WPMY-1 stromal cells. 7 weeks old NSG mice were surgical castrated and let androgen levels drop for 10 days. Cells were trypsinized washed two times in PBS and resuspend in DMEN. 1×10^6 PC3 and 1×10^6 sgC or sgAP1-A WPMY-1 for each mouse were resuspended in 100 μl DMEM: Matrigel (1:1) and injected subcutaneously into both flanks of immunocompromised NSG mice (PC3+sgC WPMY-1 n=4; PC3+sgAP-1 WPMY-1 n=4). Tumors were allowed to grow for 1 month. Mice were euthanized and tumors were collected and analyzed histologically. For Olaparib treatment in mouse xenografts. PC3 PCa cells and WPMY-1 stromal cells were trypsinized washed two times in PBS and resuspend in DMEN. 1×10^6 PC3 and 1×10^6 WPMY-1 for each mouse were resuspended in 100 μl DMEM: Matrigel (1:1) and injected subcutaneously into both flanks of immunocompromised NSG mice. Tumors were allowed to grow for 14 days, and mouse were randomly divided to receive vehicle, n=10, Olaparib (40 mg/kg, 2 days each week, i.p.), n=10 or Olaparib (40 mg/kg, 2 days each week, i.p.)+_PEGPH20 (0.0375 mg/Kg, 2 days each week, retroorbital injection) n=10. Tumors were measured twice a week. Mice were euthanized 14 days after the initiation of the treatment and tumors were collected and analyzed histologically. For Olaparib treatment in mice, 13 weeks-old male TRAMP^+, n=18, were randomly distributed to receive vehicle, n=9, or Olaparib (40 mg/kg/, 5 days each week, i.p.), n=9. Mice were euthanized 1 month after the initiation of the treatment. Prostate and other organs were collected and analyzed histologically.
Tissues from indicated mice were isolated, fixed in zinc buffered formalin overnight at 4° C., dehydrated, and embedded in paraffin. Sections (5 μm) were stained with hematoxylin and eosin (H&E). For immunohistochemistry, sections were deparaffinized, rehydrated, and then treated for antigen retrieval. After blocking in Protein Block Serum-Free solutions (DAKO), tissues were incubated with primary antibody overnight at 4° C. followed by incubation with biotinylated secondary antibody. Endogenous peroxidase was quenched in 3% H2O2 in water for 10 minutes at room temperature. Antibodies were visualized with avidin-biotin complex (Vectastain Elite; Vector Laboratories) using diaminobenzidine as the chromogen. Stained sections were analyzed with a Zeiss light microscope supplemented with Zen 3.3 Bule edition software.
Prostate lobes dissected and washed with cold PBS. Prostate tissue was gently minced with scissors and digested in Advance DMEN/F12 media (Gibco, Thermo Fisher) with 5 mg/ml Collagenase type II (Sigma) supplemented with Y27632 (Tocris) for 1 hour at 37° C. Cells were passed through a 70 μm strainer and centrifuge 5 minutes, 1000 rpm at 4° C. After that, cells were incubated with TrypLE Express (Gibco, Thermo Fisher) supplemented with Y27632 for 20 minutes in agitation at 37° C. to achieve a single cell suspension. TrypLE Express was quenched and washed with Advance DMEN/F12 media and then cells were centrifuged for 5 minutes, 1000 rpm at 4° C. Dead cells were removed by Annexin V ([…] technologies). scRNA-seq libraries were generated using the Chromium Single Cell 30 Reagent Kit v2 (10× Genomics). Cells were loaded onto the 10×Chromium Single Cell Platform (10× Genomics) at a concentration of 2,000 cells per μl (Single Cell 3′ library and Gel Bead Kit v.2) as described in the manufacturer's protocol (10× User Guide, Revision B). On average, approximately 8,000 cells were loaded. Generation of gel beads in emulsion (GEMs), barcoding, GEM-RT clean-up, complementary DNA amplification and library construction were all performed as per the manufacturer's protocol. Individual sample quality was checked using a Bioanalyzer Tapestation (Agilent). Qubit was used for library quantification before pooling. The final library pool was sequenced on an Illumina NovaSeq6000 instrument using a S1 flow cell. […]

PC3 cells = test: Trans-well migration and invasion of PC3 cells co-cultured with pre-treated WPMY-1 cells; format: cell-based, human; conditions: co-culture with Olaparib-pretreated WPMY-1, 20 h, basal and ADT
Description: For co-culture migration and invasion assays, 8×10^4 WPMY-1 cells were plated onto the lower chamber of a 24 well plate in DMEN containing 10% FBS (basal conditions) or 10% charcoal stripped FBS (ADT conditions) and vehicle (DMSO) or Olaparib 10 μM or Olaparib 10 μM+PEGPH20 2.5 μg/ml for 48 hours. 5×10^4 PC3 were seeded in a transwell chamber (Corning Biocoat control inserts) or in a transwell invasion chamber (Corning BioCoat Matrigel Invasion Chambers), both with 8 μm membrane. PC3 were allowed to migrate or invade for 20 hours at 37° C., 5% CO2. Cells were fixed in cold methanol and stained with crystal violet.

SMILES: O=C(c1cc(Cc2n[nH]c(=O)c3ccccc23)ccc1F)N1CCN(C(=O)C2CC2)CC1 [Olaparib]
- p62 expression [1]: downregulated p62 expression
- desmoplastic response in the prostate (IHC HA, aSMA) (TRAMP+ prostate tumors; Olaparib 40 mg/Kg, 5 days a week, 4 weeks): induced a strong desmoplastic response in the prostate
- AR, EMT and TGFβ signaling signatures in tumor epithelium (TRAMP+ prostate tumors; Olaparib 4 weeks): increased AR, EMT and TGFβ signaling
- Has1, Spink1 and Tgfb2 transcripts in fibroblast population (scRNAseq) (TRAMP+ prostate tumors; Olaparib 4 weeks): among the most upregulated transcripts
- neuroendocrine cluster 2 (NE1) of tumor epithelium (scRNAseq) (TRAMP+ prostate tumors; Olaparib 4 weeks): completely abolished the neuroendocrine cluster 2
- pSMAD2 staining in prostates (IHC) (TRAMP+ prostate tumors; Olaparib 4 weeks): increased pSMAD2 staining
- stromal and immune cell populations (scRNAseq) (TRAMP+ prostate tumors; Olaparib 4 weeks): expansion of the stromal and immune populations
- SPINK1 levels in tumor stroma (IHC) (TRAMP+ prostate tumors; in vivo): highly upregulated
- migration and invasion of PC3 cells (PC3 cells): increased migration and invasion of PCa cells

Reference: patent publication US20250073234A1, “COMBINATION THERAPIES INCLUDING PARP1 INHIBITORS” (Cornell University, priority 2022, published 2025)
